Laboratory results reported in US20250263436A1, “BROAD-SPECTRUM ANTIVIRAL DRUG FOR ENTEROVIRUS, AND APPLICATION” (WUHAN INSTITUTE OF VIROLOGY, CHINESE ACADEMY OF SCIENCES, priority 2020, published 2025).
Where “and” joins values, the source holds several entries; their conditions need not be identical. Identical values can stand only once.

What was measured:
Huh7 cells = experiment: Toxicity assay in Huh7 cells (CCK-8); assay type: cell-based; conditions: Table 14, 24 h
Procedure: (§1) (1) Different cells were plated in a 96-well plate at 100 μL per well.
(§2) (2) When the cells grew to a confluence of 70%-80%, the DMEM medium containing 10% serum was replaced with a DMEM medium containing 2% serum, and a certain concentration gradient of polypeptide RQ was added, so that the final concentrations of the polypeptide in the wells were 0.073242 μM, 0.146484 μM, 0.292969 μM, 0.585938 μM, 1.171875 μM, 2.34375 μM, 4.6875 μM, 9.375 μM, 18.75 μM, 37.5 μM, 75 μM, 150 μM, and 300 μM, respectively.
(§3) (3) The samples were collected 24 h after the addition of the polypeptide, and then 10 μL of live cell detection reagent CCK-8 was added to each well and mixed well.
(§4) (4) The plate was placed at 37° C. for 2 h.
(§5) (5) The absorbance value at OD450 was detected by a microplate reader.

[1] = Toxicity assay in Huh7 cells (CCK-8); assay type: cell-based; conditions: human, Huh7 cells
Procedure: as §1, §2, §3, §4, §5

EV71 [2] = experiment: Inhibition of EV71 in Vero cells (viral RNA, qRT-PCR); assay type: cell-based, enterovirus 71 (EV71); conditions: anti-EV71 in Vero cells
Method in brief: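 Vero E6 cells in DMEM with 2% serum were infected with EV71 (5 μL of 1×10^6 PFU/mL per well); polypeptides at 0.3125–5 μM added 1 h later. At 24 h post-infection, total RNA extracted and viral RNA quantified by one-step qRT-PCR against untreated control.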

EV71 [3] = experiment: Inhibition of EV71 in huh7 cells (viral RNA, qRT-PCR); assay type: cell-based, enterovirus 71 (EV71); conditions: anti-EV71 in huh7 cells
Procedure: (§6) (1) Different cells were plated in a 24-well plate.
(§7) (2) When the cells grew to a confluence of 70%-80%, the DMEM medium containing 10% serum was replaced with a DMEM medium containing 2% serum (the DMEM medium containing 2% serum was added in each well at an amount of 0.5 mL), and 5 μL of EV71 virus of 1×10^6 PFU/mL was added to each well.
(§8) (3) After 1 h, different polypeptides (RQ or control TAT) with final concentrations of 0.3125 μM, 0.625 μM, 1.25 μM, 2.5 μM, and 5 μM were added respectively. The group without polypeptide added was used as a control.
(§9) (4) The samples were collected 24 h after the infection of EV71 virus, and RNA was extracted with the total RNA extraction kit.
(§10) (5) The supernatant was discarded, then 350 μL of TRK lysate was added to each well, and the plate was put on a shaker for 5 min.
(§11) (6) 350 μL of 70% ethanol (DEPC) was added to each well, and then the plate was put on a shaker for 5 min.
(§12) (7) The solution in each well was transferred to a RNA extraction column for 1 min of centrifugation at 12000 g.
(§13) (8) The solution obtained in the recovery tube was reloaded on the column again for 1 min of centrifugation at 12000 g.
(§14) (9) RNA washing buffer 1 was added in the column for 30 s of centrifugation at 12000 g. […]
(§15) (14) 2 μL of RNA sample was subjected to a fluorescence quantitative experiment using the one step qRT-PCR kit.

EV71 [4] = experiment: Inhibition of EV71 in RD cells (viral RNA, qRT-PCR); assay type: cell-based, enterovirus 71 (EV71); conditions: anti-EV71 in RD cells
Procedure: as §6, §7, §8, §9, §10, §11, §12, §13
(9) RNA washing buffer 1 was added in the column for 30 s of centrifugation at 12000 g.
(10) RNA washing buffer 2 was added in the column for 1 min of centrifugation at 12000 g.
(11) Step (10) was repeated.
(12) The column alone was centrifuged at 12000 g for 2 min to completely remove the residual RNA washing buffer.
(13) 50 μL of DEPC water was added to the column for 2 min of centrifugation at 12000 g.
as §15
(3) After 1 h, different polypeptides (RQ or control TAT) with final concentrations of 0.3125 μM, 0.625 μM, 1.25 μM, 2.5 μM and 5 μM were added respectively. The group without polypeptide added was used as a control.

EV71 [5] = experiment: Inhibition of EV71 in 293T cells (viral RNA, qRT-PCR); assay type: cell-based, enterovirus 71 (EV71); conditions: anti-EV71 in 293T cells
Procedure: as §6, §7, §8, §9, §10, §11, §12, §13, §14, §15

[6] = Toxicity assay in 293T cells (CCK-8); assay type: cell-based; conditions: human, 293T cells, read-out: Viability of Huh7 cell (%)
Procedure: as §1, §2, §3, §4, §5

293T cells = experiment: Toxicity assay in 293T cells (CCK-8); assay type: cell-based; conditions: 24 h
Procedure: as §1, §2, §3, §4, §5

[7] = Table 15 (third cell line of Example 9), RQ 0.073242 μM

With CC[C@H](C)[C@H](NC(=O)[C@H](C)NC(=O)[C@H](CO)NC(=O)[C@H](CCCNC(=N)N)NC(=O)[C@H](CC(N)=O)NC(=O)[C@H](CC(N)=O)NC(=O)[C@H](Cc1ccc(O)cc1)NC(=O)[C@H](CCC(=O)O)NC(=O)[C@H](CCCNC(=N)N)NC(=O)CNC(=O)[C@H](CO)NC(=O)CNC(=O)[C@H](CCCNC(=N)N)NC(=O)[C@H](CCCNC(=N)N)NC(=O)[C@H](CCCNC(=N)N)NC(=O)[C@H](CCC(N)=O)NC(=O)[C@H](CCCNC(=N)N)NC(=O)[C@H](CCCNC(=N)N)NC(=O)[C@H](CCCCN)NC(=O)[C@H](CCCCN)NC(=O)[C@H](CCCNC(=N)N)NC(=O)CNC(=O)[C@@H](N)Cc1ccc(O)cc1)C(=O)NCC(=O)N[C@@H](CC(N)=O)C(=O)N[C@H](C(=O)N[C@H](C(=O)N[C@@H](CCC(=O)O)C(=O)N[C@@H](C)C(=O)N[C@@H](CC(C)C)C(=O)N[C@@H](Cc1ccccc1)C(=O)N[C@@H](CCC(N)=O)C(=O)O)[C@@H](C)CC)[C@@H](C)O [RQ] the “Viability of Huh7 cell (%)” value (Huh7 cells; RQ 0.073242 μM) was 113.9801% and 116.7518%, the “Viability of Huh7 cell (%)” value (Huh7 cells; RQ 0.146484 μM) was 106.6132% and 101.8721% and the “Viability of Huh7 cell (%)” value (Huh7 cells; RQ 0.292969 μM) was 104.4979% and 102.018%. The “Viability of Huh7 cell (%)” value (Huh7 cells; RQ 0.585938 μM) was 100.7051% and 101.5074%, the “Viability of Huh7 cell (%)” value (Huh7 cells; RQ 1.171875 μM) was 97.2% and 99.03% and the “Viability of Huh7 cell (%)” value (Huh7 cells; RQ 2.34375 μM) was 100.1945% and 96.04%. The “Viability of Huh7 cell (%)” value (Huh7 cells; RQ 4.6875 μM) was 103.5497% and 101.2886%, the “Viability of Huh7 cell (%)” value (Huh7 cells; RQ 9.375 μM) was 101.4345% and 97.71% and the “Viability of Huh7 cell (%)” value (Huh7 cells; RQ 18.75 μM) was 93.41% and 94.29%. For the same compound, the “Viability of Huh7 cell (%)” value (Huh7 cells; RQ 37.5 μM) was 97.06% and 92.03%, the “Viability of Huh7 cell (%)” value (Huh7 cells; RQ 75 μM) was 93.27% and 88.09% and the “Viability of Huh7 cell (%)” value (Huh7 cells; RQ 150 μM) was 67.74% and 51.47%. For the same compound, the viability at 24 h, 0.073242 µM ([1]; Table 14, RQ 0.073242 μM, 24 h, read-out: Viability of Huh7 cell (%)) was 113%, the viability at 24 h, 0.146484 µM ([1]; Table 14, RQ 0.146484 μM, 24 h, read-out: Viability of Huh7 cell (%)) was 111% and the viability at 24 h, 0.292969 µM ([1]; Table 14, RQ 0.292969 μM, 24 h, read-out: Viability of Huh7 cell (%)) was 111%. The viability at 24 h, 0.585938 µM ([1]; Table 14, RQ 0.585938 μM, 24 h, read-out: Viability of Huh7 cell (%)) was 101%, the viability at 24 h, 1.17188 µM ([1]; Table 14, RQ 1.171875 μM, 24 h, read-out: Viability of Huh7 cell (%)) was 104% and the viability at 24 h, 2.34375 µM ([1]; Table 14, RQ 2.34375 μM, 24 h, read-out: Viability of Huh7 cell (%)) was 98.7%. For the same compound, the viability at 24 h, 4.6875 µM ([1]; Table 14, RQ 4.6875 μM, 24 h, read-out: Viability of Huh7 cell (%)) was 98%, the viability at 24 h, 9.375 µM ([1]; Table 14, RQ 9.375 μM, 24 h, read-out: Viability of Huh7 cell (%)) was 103% and the viability at 24 h, 18.75 µM ([1]; Table 14, RQ 18.75 μM, 24 h, read-out: Viability of Huh7 cell (%)) was 101%. It also gave a viability at 24 h, 37.5 µM ([1]; Table 14, RQ 37.5 μM, 24 h, read-out: Viability of Huh7 cell (%)) of 95%, a viability at 24 h, 75 µM ([1]; Table 14, RQ 75 μM, 24 h, read-out: Viability of Huh7 cell (%)) of 90.9% and a viability at 24 h, 150 µM ([1]; Table 14, RQ 150 μM, 24 h, read-out: Viability of Huh7 cell (%)) of 65.8%. The CC50 at 24 h ([1]; Table 1 (Huh and 293T cells)) was over 300000 nM, the IC50 (EV71 [2]) was 660 nM and the IC50 (EV71 [3]) was 410 nM. It also gave an IC50 (EV71 [4]) of 1350 nM, an IC50 (EV71 [5]) of 3000 nM and a Viability of 293T cells at 24 h, 0.073242 µM [6, 7] of 98.4%. For the same compound, the Viability of 293T cells at 24 h, 0.146484 µM ([6]; Table 15, RQ 0.146484 μM) was 101%, the Viability of 293T cells at 24 h, 0.292969 µM ([6]; Table 15, RQ 0.292969 μM) was 101% and the Viability of 293T cells at 24 h, 0.585938 µM ([6]; Table 15, RQ 0.585938 μM) was 100%. For the same compound, the Viability of 293T cells at 24 h, 1.17188 µM ([6]; Table 15, RQ 1.171875 μM) was 99.7%, the Viability of 293T cells at 24 h, 2.34375 µM ([6]; Table 15, RQ 2.34375 μM) was 99.1% and the Viability of 293T cells at 24 h, 4.6875 µM ([6]; Table 15, RQ 4.6875 μM) was 98.6%. The Viability of 293T cells at 24 h, 9.375 µM ([6]; Table 15, RQ 9.375 μM) was 99.7%, the Viability of 293T cells at 24 h, 18.75 µM ([6]; Table 15, RQ 18.75 μM) was 100% and the Viability of 293T cells at 24 h, 37.5 µM ([6]; Table 15, RQ 37.5 μM) was 102%. The Viability of 293T cells at 24 h, 75 µM ([6]; Table 15, RQ 75 μM) was 102%, the Viability of 293T cells at 24 h, 150 µM ([6]; Table 15, RQ 150 μM) was 66.6% and the “Viability of 293T cells” value (293T cells; [7]) was 100.4267% and 97.87%. The “Viability of 293T cells” value (293T cells; Table 15, RQ 0.146484 μM) was 100.8922% and 100.9503%, the “Viability of 293T cells” value (293T cells; Table 15, RQ 0.292969 μM) was 102.4631% and 100.8922% and the “Viability of 293T cells” value (293T cells; Table 15, RQ 0.585938 μM) was 102.8123% and 101.6486%. The “Viability of 293T cells” value (293T cells; Table 15, RQ 1.171875 μM) was 115.4383% and 103.5687%, the “Viability of 293T cells” value (293T cells; Table 15, RQ 2.34375 μM) was 100.3685% and 102.8704% and the “Viability of 293T cells” value (293T cells; Table 15, RQ 4.6875 μM) was 99.96% and 100.0776%. For the same compound, the “Viability of 293T cells” value (293T cells; Table 15, RQ 9.375 μM) was 99.96% and 94.03%, the “Viability of 293T cells” value (293T cells; Table 15, RQ 18.75 μM) was 99.9% and the “Viability of 293T cells” value (293T cells; Table 15, RQ 37.5 μM) was 101.1249% and 102.9286%. For the same compound, the “Viability of 293T cells” value (293T cells; Table 15, RQ 75 μM) was 98.97% and 99.5% and the “Viability of 293T cells” value (293T cells; Table 15, RQ 150 μM) was 63.83% and 64.4104%.
